Measured values from patent US7018803B2, “Inhibitors of collagen assembly” (Drexel University College of Medicine, priority 1997, dated 2006).
No end group written: not given here.

Key:
[1] = molecular target: T1, type I collagen (pCcollagen I) (Homo sapiens, UniProt P02452); type: biochemical; settings: for inhibition of fibril assembly (in words): peptide 2.5 mM
T1 construct: made in house; host or cells: cultured human skin fibroblasts (endogenous procollagen purified from the medium, 14C-labelled)
Description: Assembly of collagen I into fibrils de novo was assayed under conditions employed previously (Miyahara et al., 1982, J. Biol. Chem. 257:8442–8448; Kadler et al., 1987, J. Biol. Chem. 262:15696–15701; Kadler et al., 1990, Ann. N.Y. Acad. Sci. 580:214–224; Kadler et al., 1990, Biochem. J. 268:339–343; Fertala et al., 1996, J. Biol. Chem. 271:14864–14869). In brief, ^14C-labeled type I procollagen was recovered from the medium of cultured human skin fibroblasts and was purified with two chromatographic steps to homogeneity. The type I procollagen was processed to pccollagen I by cleavage with procollagen N-proteinase purified from organ cultures of chick embryo tendons. “pCcollagen” is a partially processed procollagen which is missing the […]. The pCcollagen was then isolated on a gel filtration column. Fibril assembly was assayed in a […] reaction volume in a […] plastic centrifuge tube sealed with a plunger and containing a physiological bicarbonate buffer, […] pCcollagen I, and 15 units/ml procollagen C-proteinase purified from chick embryo tendons. Potentially inhibitory peptides were added to the reaction mixture to final concentrations of 0.5 to 2.5 mM in […] of buffer. After incubation for 0.5 to 24 hours at 37° C., the sample was centrifuged 13,000×g for 10 min. The pellet and supemate fractions were separated by electrophoresis on a 7.5% polyacrylamide gel in SDS and the gel assayed either with a phosphor storage imager (Molecular Dynamics) or by staining with colloidal Coomassie blue (Brilliant Blue, Sigma) and analysis with a densitometer (Personal Densitometer, Molecular Dynamics). Alternatively, the reaction was carried out in a sealed chamber on a microscopic slide and followed by Dark field light microscopy (Zeiss model 009).
F6 contained sequences that spanned the vertebrate collagenase cleavage site of -Gly-le- in the D4 period of the α1(I) chain. […] The peptides were added in concentrations of 2.5 mM to the system for assaying fibril formation by the cleavage of pCcollagen with C-proteinase (Miyahara et al., 1982, J. Biol. Chem. 257:8442–8448; Kadler et al., 1987, J. Biol. Chem. 262:15696–15701; Kadler et al., 1990, Ann. N.Y. Acad. Sci. 580:214–224; Kadler et al., 1990, Biochem. J. 268:339–343; Fertala et al., 1996, J. Biol. Chem. 271:14864–14869).

[2] = molecular target: T2, type I collagen (monomeric collagen, Vitrogen 100) (Bos taurus, UniProt P02453); assay: Competition binding assay on microtiter plates with biotinylated telopeptides
T2 construct: purchased Collagen Biomaterials Vitrogen 100
Description: A collagen assembly inhibitory peptide is “biologically active” if it is capable of inhibiting collagen self-assembly in any one of the assays described herein. For example, in a high throughput assay described herein in the description of the data shown in FIGS. 8 and 9, a series of wells in a microtiter plate are coated with monomeric collagen. An amount of HCl is added to each well and the plates are dried. The plates are rinsed in buffer and bovine serum albumin (BSA) is added to block non-specific binding sites on the collagen. Samples containing labeled peptide (for example, biotinylated peptide) which is known to inhibit collagen self-assembly and unlabeled test peptide at various concentrations are premixed and are added to the wells. […] The wells are incubated for a period of time, the plates are washed and streptavidin conjugated to alkaline phosphatase is added. Incubation is continued for a further period of time following which a developing reagent is added to the wells. The amount of binding of the labeled peptide to the collagen is assessed and the degree of inhibition of binding by the test peptide is also assessed. Any test peptide which inhibits binding of the labeled peptide is isolated and is tested further for the ability to inhibit collagen self-assembly in the assays described herein in the description of FIGS. 1, 2 and 3.
To define the telopeptide binding site with a competitive assay, 96-well titiation plates (Immulon 3, Dynatech Laboratories, Inc.) were used. Seventy microliters of the solution containing […] of monomeric collagen (Vitrogen 100, Collagen Biomaterials) in 0.01 N HCl was added to each well, and the plates were dried at room temperature. The plates were rinsed with sterile phosphate buffered saline and non-specific binding sites were blocked with 1% bovine serum albumin. […] As a negative control, peptide α2-218/233 was used at concentrations from […]. […] After 2 hours of incubation, the reaction was measured with microtiter plate reader (Dynatech Laboratories) using a 405 nanometer filter. […]

type I collagen = type I collagen (Homo sapiens, UniProt P02452); assay: Phage display peptide library panning, ligand type I collagen in all three cycles; type: binding; settings: ligand Type I Collagen x3
Description: (§1) A comrnmercially-available phage-display peptide library was used to identify peptides that bind to the telopeptide binding region of type I collagen (i.e. amino acid residues 776–797). The library comprised phage particles having about 1.9×10^9 distinct linear peptide sequences.
(§2) For the experiments described in this Example, either type I collagen or a 22-mer synthetic peptide having the amino acid sequence of residues 776–797 of type I collagen was bound to the walls of individual wells of microtiter plates. Aliquots of the phage-display peptide library were added to and incubated with the wells. Thereafter, the microtiter wells were rinsed to remove non-specifically-binding library particles, and specifically-binding library particles were eluted using a solution comprising at least one of: • the 22-mer synthetic peptide having the amino acid sequence of residues 776–797 of type I collagen; • type I collagen; and • glycine HCl buffer having a pH of 2.2.
(§3) Eluted specifically-binding library particles were added to and incubated with microtiter plates having either type I collagen or the 22-mer synthetic peptide bound to the wells thereof, and washing and elution steps were repeated. A total of three cycles of incubation-washing-elution were performed. Following these three cycles, specifically-binding phage particles were isolated, and the amino acid sequence of the peptide encoded by each of these particles was determined by amplifying and sequencing the nucleic acid contained within the particle.
Amino acid sequences of the random peptide region carried by discrete specifically-binding phage particles are indicated in Table II, together with the identity of the ligand bound to the microtiter wells in each of the three incubation-washing-elution cycles. […]

[3] = molecular target: T3, α1-776/796 (telopeptide binding region of type I collagen) (Homo sapiens, UniProt P02452); assay: Phage display peptide library panning, ligand α1-776/796 peptide in all three cycles; settings: ligand α1-776/796 x3
T3 construct: host or cells: synthetic peptide
Description: as §1, §2, §3
Amino acid sequences of the random peptide region carried by discrete specifically-binding phage particles are indicated in Table II, together with the identity of the ligand bound to the microtiter wells in each of the three incubation-washing-elution cycles. These isolated peptides, or peptides having no more than about fifty, preferably no more than twenty, even more preferably no more than ten, and still more preferably no more than five amino acid residues at one or both ends thereof, may be used to inhibit collagen self-assembly by contacting a collagen molecule such as a collagen triple helix, with one of these peptides.

Sequence of type I collagen (P02452 162-1218 limits assumed): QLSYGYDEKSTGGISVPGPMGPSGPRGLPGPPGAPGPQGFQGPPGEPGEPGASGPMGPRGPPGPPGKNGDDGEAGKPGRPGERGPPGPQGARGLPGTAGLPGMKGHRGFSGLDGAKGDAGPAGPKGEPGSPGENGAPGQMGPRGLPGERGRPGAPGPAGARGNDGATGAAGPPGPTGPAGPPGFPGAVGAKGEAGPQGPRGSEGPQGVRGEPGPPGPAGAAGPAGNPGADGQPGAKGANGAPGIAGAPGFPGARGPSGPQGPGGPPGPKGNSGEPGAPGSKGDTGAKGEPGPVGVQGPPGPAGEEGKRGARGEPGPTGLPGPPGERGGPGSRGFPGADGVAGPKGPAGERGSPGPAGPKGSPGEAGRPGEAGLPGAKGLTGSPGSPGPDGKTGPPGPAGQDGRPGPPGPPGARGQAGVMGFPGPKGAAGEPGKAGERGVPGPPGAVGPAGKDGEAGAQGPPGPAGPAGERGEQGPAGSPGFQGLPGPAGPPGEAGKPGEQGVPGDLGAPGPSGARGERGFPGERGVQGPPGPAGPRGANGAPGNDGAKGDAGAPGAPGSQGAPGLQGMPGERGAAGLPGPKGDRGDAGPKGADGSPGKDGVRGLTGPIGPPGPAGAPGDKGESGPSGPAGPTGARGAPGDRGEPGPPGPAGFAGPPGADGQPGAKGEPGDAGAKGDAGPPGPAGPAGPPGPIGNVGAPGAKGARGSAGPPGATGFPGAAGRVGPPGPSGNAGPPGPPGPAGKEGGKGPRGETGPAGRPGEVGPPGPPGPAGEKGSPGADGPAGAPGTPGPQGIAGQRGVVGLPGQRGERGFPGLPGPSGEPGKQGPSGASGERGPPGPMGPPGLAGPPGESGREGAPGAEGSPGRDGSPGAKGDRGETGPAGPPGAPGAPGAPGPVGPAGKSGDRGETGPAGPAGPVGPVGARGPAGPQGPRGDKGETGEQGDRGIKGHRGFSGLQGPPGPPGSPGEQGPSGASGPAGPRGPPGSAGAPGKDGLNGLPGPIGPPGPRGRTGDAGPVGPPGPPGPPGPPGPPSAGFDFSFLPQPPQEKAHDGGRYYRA
Sequence of type I collagen (P08123 80-1119 partner limits assumed): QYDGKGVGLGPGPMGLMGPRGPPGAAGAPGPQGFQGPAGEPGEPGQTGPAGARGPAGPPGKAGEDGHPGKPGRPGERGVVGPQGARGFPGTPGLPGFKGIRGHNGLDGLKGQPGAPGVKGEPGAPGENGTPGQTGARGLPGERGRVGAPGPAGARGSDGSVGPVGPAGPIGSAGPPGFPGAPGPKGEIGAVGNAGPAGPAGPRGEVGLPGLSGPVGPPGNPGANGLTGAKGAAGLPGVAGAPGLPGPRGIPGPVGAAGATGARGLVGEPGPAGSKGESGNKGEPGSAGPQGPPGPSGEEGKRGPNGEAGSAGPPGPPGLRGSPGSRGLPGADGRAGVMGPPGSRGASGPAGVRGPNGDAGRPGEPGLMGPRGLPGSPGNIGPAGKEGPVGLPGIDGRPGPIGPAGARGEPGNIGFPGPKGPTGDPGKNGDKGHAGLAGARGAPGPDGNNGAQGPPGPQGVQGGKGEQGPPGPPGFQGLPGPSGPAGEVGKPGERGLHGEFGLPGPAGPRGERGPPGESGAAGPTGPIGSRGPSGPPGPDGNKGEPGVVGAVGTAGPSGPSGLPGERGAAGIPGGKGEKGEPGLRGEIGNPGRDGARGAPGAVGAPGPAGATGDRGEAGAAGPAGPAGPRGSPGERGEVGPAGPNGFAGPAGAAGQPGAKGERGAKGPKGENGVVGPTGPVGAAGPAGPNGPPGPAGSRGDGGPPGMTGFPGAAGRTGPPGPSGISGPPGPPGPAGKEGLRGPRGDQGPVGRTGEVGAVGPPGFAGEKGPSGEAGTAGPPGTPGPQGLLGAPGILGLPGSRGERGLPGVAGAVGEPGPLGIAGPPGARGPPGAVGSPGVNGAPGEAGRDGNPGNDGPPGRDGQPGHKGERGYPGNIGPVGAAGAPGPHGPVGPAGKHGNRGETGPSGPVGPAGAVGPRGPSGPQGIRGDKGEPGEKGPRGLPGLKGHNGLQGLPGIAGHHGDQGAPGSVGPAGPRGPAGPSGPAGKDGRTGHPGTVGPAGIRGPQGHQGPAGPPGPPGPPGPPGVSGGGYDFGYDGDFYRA
T1 sequence (P02452 162-1218 limits assumed): as the sequence (P02452 162-1218 limits assumed) above
T1 sequence (P08123 80-1119 partner limits assumed): as the sequence (P08123 80-1119 partner limits assumed) above
T2 sequence (P02453 178-1191 limits assumed): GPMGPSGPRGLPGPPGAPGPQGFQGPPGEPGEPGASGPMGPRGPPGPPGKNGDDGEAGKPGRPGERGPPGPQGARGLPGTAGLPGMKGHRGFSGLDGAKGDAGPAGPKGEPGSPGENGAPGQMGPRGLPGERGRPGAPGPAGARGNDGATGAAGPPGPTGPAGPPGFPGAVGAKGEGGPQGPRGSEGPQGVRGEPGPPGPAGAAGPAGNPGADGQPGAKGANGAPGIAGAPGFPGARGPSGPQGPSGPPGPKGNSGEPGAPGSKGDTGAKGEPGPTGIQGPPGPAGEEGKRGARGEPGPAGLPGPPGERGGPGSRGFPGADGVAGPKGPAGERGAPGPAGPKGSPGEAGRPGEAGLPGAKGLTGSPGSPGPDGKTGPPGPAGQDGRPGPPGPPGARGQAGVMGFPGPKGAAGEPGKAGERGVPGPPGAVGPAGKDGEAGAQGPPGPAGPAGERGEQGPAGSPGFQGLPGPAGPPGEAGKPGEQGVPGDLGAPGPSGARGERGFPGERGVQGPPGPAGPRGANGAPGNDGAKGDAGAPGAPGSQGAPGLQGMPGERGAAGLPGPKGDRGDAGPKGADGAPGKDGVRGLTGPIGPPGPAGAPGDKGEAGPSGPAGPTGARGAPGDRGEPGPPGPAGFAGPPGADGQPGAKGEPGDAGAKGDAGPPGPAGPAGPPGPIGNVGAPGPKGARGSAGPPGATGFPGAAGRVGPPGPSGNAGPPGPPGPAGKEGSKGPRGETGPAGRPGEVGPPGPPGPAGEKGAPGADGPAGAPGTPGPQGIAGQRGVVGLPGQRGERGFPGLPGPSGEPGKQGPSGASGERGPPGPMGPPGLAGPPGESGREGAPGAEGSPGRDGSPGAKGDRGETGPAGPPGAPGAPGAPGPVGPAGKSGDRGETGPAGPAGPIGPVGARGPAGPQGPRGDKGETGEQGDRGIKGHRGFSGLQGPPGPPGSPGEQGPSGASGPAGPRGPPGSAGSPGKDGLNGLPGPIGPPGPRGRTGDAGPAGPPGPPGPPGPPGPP

ADGPAGAPGTPGPQGIAGQRGVVGL [Peptide F6]
inhibition of fibril assembly (in words) [1]: little if any inhibition

AKGAAGLPGVAGAPGL [Peptide F1]
inhibition of fibril assembly (in words) [1]: little if any inhibition
competition for the binding site with biotinylated telopeptides ([2]; negative control, 10 to 500 mM): no competition

DFRYRA [Peptide F10, DFRYRA]
inhibition of fibril assembly (in words) [1]: Smaller effects

GGGSDSGSD [F7/B]
inhibition of fibril assembly (in words) [1]: abolished inhibitory effects

GGGYDFGYD [Peptide F7]
inhibition of fibril assembly (in words) [1]: equally effective as the intact F3

GGGYDFGYDGDFYRA [Peptide F3]
effect on fibril formation when added during the lag period ([1]; 2.5 mM added during the lag phase): inhibited fibril formation
effect on fibril assembly when added during the mid-propagation phase ([1]; 2.5 mM added during the mid-propagation phase): little of any effect
appearance of fibrils by Dark field light microscopy ([1]; 2.5 mM, sealed chamber, 37° C., 24 hours): No fibrils appeared
effect on fibril assembly if added at or before the first one-third of the lag phase ([1]; added at or before the first one-third of the lag phase): completely prevented fibril assembly
effect on fibril assembly if added after the first one-third of the lag phase ([1]; added thereafter): much less effect
inhibition of fibril assembly (in words) [1]: almost completely inhibited

GGGYSFGYS [F7/A]
inhibition of fibril assembly (in words) [1]: no effect on inhibition of fibril assembly

GYDFGYDGDF [Peptide F9]
inhibition of fibril assembly (in words) [1]: Smaller effects

GYDGDFYRA [Peptide F8]
inhibition of fibril assembly (in words) [1]: equally effective as the intact F3

LIQPPRYSTTVS (Phage Display Library Peptide)
# of Isolated Particles Having this Sequence (type I collagen; eluent pH 2.2 buffer): 10

LLPHSVSIPPDA (Phage Display Library Peptide)
# of Isolated Particles Having this Sequence (type I collagen; eluent Type I Collagen): 10

QLLEPVNLSTGP (Phage Display Library Peptide)
# of Isolated Particles Having this Sequence ([3]; eluent α1-776/796): 7

QLSYGYDEKSTGGISVP [Peptide F4]
inhibition of fibril assembly (in words) [1]: almost completely inhibited

SHALPLTWSTAA (Phage Display Library Peptide)
# of Isolated Particles Having this Sequence ([3]; eluent α1-776/796): 1
# of Isolated Particles Having this Sequence (type I collagen; eluent α1-776/796): 10

TFWHLTPPRGYY (Phage Display Library Peptide)
# of Isolated Particles Having this Sequence ([3]; eluent pH 2.2 buffer): 3→

VHWWIPVSTGTA (Phage Display Library Peptide)
# of Isolated Particles Having this Sequence ([3]; eluent pH 2.2 buffer): 6→

YGAGFDDGDYGYRYG [SC/F3, peptide having the same amino acid residues as F3, but in a scrambled order, reference compound]
inhibition of fibril assembly (in words) [1]: no effect

YGSPHPSRPPGA (Phage Display Library Peptide)
# of Isolated Particles Having this Sequence ([3]; eluent Type I Collagen): 10
# of Isolated Particles Having this Sequence ([3]; eluent α1-776/796): 1→

α1-776/797: peptide with the sequence of the amino acids in positions 776 to 797 of the α1(I) chain (IAGQRGVVGLPGQRGERGFPGL)
competition with binding of biotinylated C-telopeptide of the α1(I) chain (peptide F2) to type I collagen ([2]; 50 mM biotinylated F2, 10 to 500 mM competitor, 25° C., 12 h): effectively competed
competition with binding of biotinylated C-telopeptide of the α2(I) chain (peptide F3) to type I collagen ([2]; 50 mM biotinylated F3, 10 to 500 mM competitor, 25° C., 12 h): effectively competed
